Assay results: patent US20240352070A1, “NOVEL CATHEPSIN INHIBITORS” (Ecole Polytechnique Federale de Lausanne (EPFL), priority 2021, published 2024)
Values belong to the compound of their own block, whether it stands above or below them. Numbered stars: 1 amine (or outer) side, 2 acyl side, 3 side chain; on linkers, the order of the positions; unused ones are H or OH. Square brackets hold non-standard residues; d marks the D form. Peptide text beside a SMILES is read from it. Trp(3a,7a-dihydro) = N[C@@H](CC1=CNC2C=CC=CC12)C(=O)O; Butenoyl(2E,4-amino) = O=C(/C=C/CN[*:1])[*:2]; Dap(N3) = [N-]=[N+]=NC[C@H](N)C(=O)O; Pra = C#CC[C@H](N)C(=O)O

What was measured:
CTSS wild-type = molecular target: T1, CTSS wild-type (Homo sapiens, UniProt P25774); assay: FRET assay to test CTSS activity (wild-type); type: biochemical
T1 construct: made in house; host or cells: HEK293
T1 sequence (P25774 115-331): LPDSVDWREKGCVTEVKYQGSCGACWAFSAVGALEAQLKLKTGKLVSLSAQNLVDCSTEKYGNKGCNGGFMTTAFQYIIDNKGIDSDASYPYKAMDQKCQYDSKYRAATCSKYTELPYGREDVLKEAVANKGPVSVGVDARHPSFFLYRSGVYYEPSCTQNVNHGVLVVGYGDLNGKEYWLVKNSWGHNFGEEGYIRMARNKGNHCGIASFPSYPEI
Description: (§1) Cathepsins protein expression and purification. For CTSS purification, the human CTSS sequence depleted of the lysosomal localization signal (amino acids 17 to 331) was amplified from pLVX plasmids expressing WT or Y132D CTSS using the following primers: […]
The PCR products were digested using Agel and Kpn1 restriction enzymes (NEB, cat #R3552S and #R3142S), then cloned in pHLsec plasmids carrying a secretion signal at the N-terminal of the MCS and a His-tag sequence at the C-terminal of the MCS. pHLsec-CTSS plasmids were transfected into HEK293 cells with PEI (polyethyleneimine) in presence of VPA (valproic acid). Proteins were purified from the supernatant using a 5 ml His-Trap FF column on an ÄKTA pure system (GE healthcare). Bound proteins were eluted using a 300 mM imidazole solution. Concentrated proteins were further purified by size exclusion chromatography on a HiLoad® 16/600 Superdex® 75 pg column (GE Healthcare) using PBS as mobile phase. Purified proteins were quantified by Nanodrop, diluted in a buffer containing 12.5 mM MES, 75 mM NaCl and 50% glycerol at ph 6.5 and stored at −20° C. […]
FRET (Fluorescence Resonance Energy Transfer) assay to test CTSS activity. […] The peptide was added to the activated CTSS (50 ul/well) and fluorescent emission (MCA) was measured with SpectraMax iD3 (Molecular Devices) in kinetic mode for three hours (excitation: 330 nm, emission: 390 nm). […]

CTSS Y132D = molecular target: T2, CTSS Y132D (Homo sapiens, UniProt P25774, Y132D); assay: FRET assay with mutated CTSS Y132D; type: biochemical
T2 construct: made in house; host or cells: HEK293
T2 sequence (P25774 115-331 Y132D): as the sequence (P25774 115-331) above, with Y18D counted along it
Description: as §1
The PCR products were digested using Agel and Kpn1 restriction enzymes (NEB, cat #R3552S and #R3142S), then cloned in pHLsec plasmids carrying a secretion signal at the N-terminal of the MCS and a His-tag sequence at the C-terminal of the MCS. pHLsec-CTSS plasmids were transfected into HEK293 cells with PEI (polyethyleneimine) in presence of VPA (valproic acid). Proteins were purified from the supernatant using a 5 ml His-Trap FF column on an ÄKTA pure system (GE healthcare). Bound proteins were eluted using a 300 mM imidazole solution. Concentrated proteins were further purified by size exclusion chromatography on a HiLoad® 16/600 Superdex® 75 pg column (GE Healthcare) using PBS as mobile phase. Purified proteins were quantified by Nanodrop, diluted in a buffer containing 12.5 mM MES, 75 mM NaCl and 50% glycerol at ph 6.5 and stored at −20° C. Purified CTSB and CTSH were purchased from RndSystems.
FRET (Fluorescence Resonance Energy Transfer) assay to test CTSS activity. For FRET experiments, CTSS-His was diluted to 10 μg/mL in assay buffer (50 mM NaOAc, 5 mM DTT, 250 mM NaCl), at pH 4.5 and incubated at 37° C. for 90 minutes to allow auto-activation. The protein was then diluted to 0.5 ng/ul in assay buffer and plated in 96-well plates (50 ul/well). […] The peptide was added to the activated CTSS (50 ul/well) and fluorescent emission (MCA) was measured with SpectraMax iD3 (Molecular Devices) in kinetic mode for three hours (excitation: 330 nm, emission: 390 nm).
It was recently reported that 5.7% of lymphoma patients harbour a specific gain of function mutation changing the tyrosine 132 in aspartate (Y132D) or asparagine (Y132N). […] This was measured through a FRET assay in which the inhibitor was incubated with CTSS Y132D. […]

cathepsin B (CTSB) = molecular target: T3, cathepsin B (CTSB) (Homo sapiens, UniProt P07858); assay: Specificity assay: FRET assay for CTSB activity; type: biochemical
T3 construct: purchased RndSystems
Experimental: (§2) Specificity assay. […] First, we used specific conditions to activate the enzymes. CTSB was diluted in a specific activation buffer (MES 25 mM, DTT 5 mM, pH 5) at 10 ug/ml, incubated at 37° C. for 2 h and then diluted to 1 ug/ml in assay buffer (MES 25 mM, pH 5) for the FRET assay. CTSH was diluted in a different activation buffer (MES 50 mM, CaCl2) 10 mM, NaCl 150 mM, pH 6.5) at 200 ug/ml. In addition, as co-stimulatory activator we used thermolysin diluted at 100 ug/ml in activation buffer and then mixed with an equal volume of the diluted CTSH. The solution was incubated for 1 h at room temperature and then we added 2 mM Phosphoramidon diluted in assay buffer (MES 50 mM, pH 6.5) and we incubated the mix for 10 minutes at room temperature. Lastly, we added an equal volume of assay buffer containing 20 mM DTT and incubated the solution for 5 minutes at room temperature. For the FRET assay, we diluted both CTSH, and CTSB at 1 ug/ml in their specific assay buffer and incubated them with a specific substrate. We used as substrate KPPKPVSD in CTSB FRET assays and KLRMKLPKP in CTSH FRET assays and we tested two doses of our P3 inhibitor (20 uM and 50 uM). Fluorescence emission was measured with SpectraMax iD3 (Molecular Devices) in kinetic mode over three hours (excitation: 330 nm, emission: 390 nm).

CTSB in MCF-7 cells = molecular target: T4, CTSB in MCF-7 cells (Homo sapiens, UniProt P07858); assay: Quenched activity-based probe (qABP) assay in MCF-7 cells; type: cell-based; settings: 16 hours, 500 ug/ml APeC, compared to PBS or antibody mixed to C10 without linker
T4 construct: endogenous in cells; host or cells: MCF-7
Experimental: FIG. 8. Output of quenched activity-based probe (qABP) assay. The presence of a dark band corresponds to the detection of a strong activity of CTSB. Absence of a band means complete CTSB inhibition. APeC=antibody-peptide conjugate. Ab=antibody.
(§3) CD74 accumulation assay for efficacy assessment. To test the efficacy of our APeCs, 2×10^5 WSU-DLCL2 or Raji cells were incubated for two days with 300 or 500 ug/ml of APeC, in RPMI 1640 medium (ThermoFisher Scientific) supplemented with 10% FBS and 1% Penicillin-Streptomycin (ThermoFisher Scientific, cat. no. 15140122). After the first 24 h treatment, the cells were washed and resuspended in fresh APeC at the same treatment concentration. As negative controls, the same number of cells was either treated with PBS or with 300 ug/ml of the corresponding antibody previously incubated with C10 inhibitor in absence of DBCO-maleimide linker. Each treatment condition was tested in duplicates. […] Cells were then stained with anti-human CD74 antibody (BioLegend, cat. no. 357604) and fluorescence was measured by flow cytometry using BD LSRFortessa instrument (BD Biosciences). […] The gel was analysed by scanning in-gel fluorescence on a Typhoon Trio flat-bed laser scanner (GE Healthcare), and protein loading was confirmed by staining with Coomassie® Brilliant Blue R-250 (Schmidt GmbH). […]

cathepsin H (CTSH) = molecular target: T5, cathepsin H (CTSH) (Homo sapiens, UniProt P09668); assay: Specificity assay: FRET assay for CTSH activity; type: biochemical; settings: at 20 uM or 50 uM, 180 minutes
T5 construct: purchased RndSystems
T5 sequence (P09668 116-335 limits assumed, other chains not shown): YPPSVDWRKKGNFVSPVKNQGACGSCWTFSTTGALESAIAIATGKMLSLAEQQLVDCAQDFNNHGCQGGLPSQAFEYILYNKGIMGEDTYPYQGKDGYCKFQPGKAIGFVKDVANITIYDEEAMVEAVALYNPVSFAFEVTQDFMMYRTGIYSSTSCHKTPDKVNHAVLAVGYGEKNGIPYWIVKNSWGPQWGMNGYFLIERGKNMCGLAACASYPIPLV
Experimental: as §2

CTSS in Raji cells = assay: CD74 accumulation assay in Raji cells; type: cell-based, human; settings: 48 hours, compared to PBS or antibody mixed to C10 in absence of linker
Experimental: (§4) FIG. 7. A-B CD74 accumulation after 48 hours-long anti-CD22 APeC treatment in WSU cells (A) and Raji cells (B). C-D CD74 accumulation after 48 hours-long anti-CD79 APeC treatment in WSU cells (C) and Raji cells (D). Single-cell fluorescence was measured by flow cytometry. CTSS inhibitor Petesicatib was used as positive control.
as §3, with “linker.” for “linker. Each treatment condition was tested in duplicates.”

CTSS in WSU-DLCL2 cells = assay: CD74 accumulation assay in WSU-DLCL2 cells; type: cell-based, human; settings: 48 hours, compared to PBS or antibody mixed to C10 in absence of linker
Experimental: as §4
as §3, with “linker.” for “linker. Each treatment condition was tested in duplicates.”

[1] = molecular target: T6, CTSS in primary human B-cells (Homo sapiens, UniProt P25774); assay: qABP assay on primary human B-cells; type: cell-based; settings: 2 different donors
T6 construct: endogenous in cells; host or cells: primary human B-cells (2 donors)
T6 sequence (P25774 115-331): as the sequence (P25774 115-331) above
Description: FIG. 11. Output of quenched activity-based probe (qABP) assay on primary human B-cells. The presence of a dark band at a precise molecular weight indicates to the detection of a strong activity of the corresponding cathepsin. Absence of a band means complete cathepsin inhibition. APeC=antibody-peptide conjugate. ab=antibody.

WSU-DLCL2 cells = assay: Internalization assay by flow cytometry; type: cell-based; settings: 100 ug/ml
Experimental: FIG. 6. A-B Results of internalization assay performed by incubating WSU-DLCL2 cells with the Epr-AF488 antibody for 3 hours at 37° C. (A) or 4° C. (B). Single-cell fluorescence was measured by flow cytometry.
Internalization assay. To test the internalization of the conjugated Epratuzumab antibody, 2×10^5 WSU-DLCL2 cells were incubated at 37° C. for 3 hours with 100 ug/ml of Epr-AF488 in PBS. As negative control, the same number of cells was incubated with 100 ug/ml of Epratuzumab previously incubated with AF488 dye in absence of DBCO-maleimide linker. Each experimental condition was tested in duplicates. Cells were then washed 3 times with PBS and 1 ul of anti-AF488 quencher antibody (ThermoFisher Scientific, A-11094) was added to half of the samples. Samples' fluorescence was measured by flow cytometry using Millipore Guava EasyCyte HT instrument (MilliporeSigma).

[2] = at 20 uM and at 50 uM, FRET, 180 minutes

IC50 (CTSS wild-type; FRET assay, dose-response, 50 minutes of incubation, wild-type CTSS): 49.3 nM | inhibition at 0.5 µM (CTSS Y132D; at 500 nM, 50 minutes of incubation, read-out: reduction of CTSS Y132D activity (inhibition efficiency)): > 90% | reduction of CTSS Y132D activity (CTSS Y132D; tested at 50 nM, 50 minutes of incubation): more than 50%
Compound: CSCC[C@H](NC(=O)[C@H](CCCNC(=N)N)NC(=O)[C@H](Cc1c[nH]cn1)NC(=O)[C@H](CCCCN)NC(=O)[C@H](CN=[N+]=[N-])NC(C)=O)C(=O)NC/C=C/C(=O)N[C@H](C(=O)N[C@@H](CCSC)C(=O)N[C@@H](Cc1c[nH]c2ccccc12)C(N)=O)C(C)C [C10, KHRM(Y)VMW] (Ac-[Dap(N3)]KHRM[Butenoyl(2E,4-amino)]VMW-NH2)

residual CTSB activity (CTSB in MCF-7 cells): inhibited CTSB activity as expected
Compound: CC(C)C[C@H](NC(=O)[C@H]1O[C@@H]1C(=O)O)C(=O)NCCCCN=C(N)N [E64]

inhibition of CTSH (cathepsin H (CTSH)): not significantly inhibited | inhibition of wild-type CTSS (CTSS wild-type; [2]): able to inhibit | inhibition of mutant form of CTSS (Y132D) (CTSS Y132D; [2]): able to inhibit | inhibitory activity on CTSB (cathepsin B (CTSB)): some inhibitory activity
Compound: C#CC[C@H](NC(C)=O)C(=O)N[C@@H](CCCCN)C(=O)N[C@@H](CC(C)C)C(=O)N[C@@H](CCCNC(=N)N)C(=O)N[C@@H](CCSC)C(=O)NC/C=C/C(=O)N1CCC[C@H]1C(=O)N[C@@H](CCCCN)C(=O)N[C@@H](CC(=O)O)C(N)=O [P3, KLRM(Y)PKD] (Ac-[Pra]KLRM[Butenoyl(2E,4-amino)]PKD-NH2)

Further lines, the compound ahead of its results:

Compound: CSCC[C@H](NC(=O)[C@H](CC1=CNC2C=CC=CC12)NC(=O)/C=C/CNC(=O)[C@H](Cc1ccc(O)cc1)NC(=O)[C@H](CCCNC(=N)N)NC(=O)[C@H](CCCNC(=N)N)NC(=O)[C@H](CCCCN)NC(=O)[C@H](CN=[N+]=[N-])NC(C)=O)C(=O)N[C@@H](CC1=CNC2C=CC=CC12)C(N)=O (some centres unmarked) [D5, KRRY(Y)WMW] (Ac-[Dap(N3)]KRRY[Butenoyl(2E,4-amino)][Trp(3a,7a-dihydro)]M[Trp(3a,7a-dihydro)]-NH2)
IC50 (cathepsin B (CTSB); dose-response, 50 minutes of incubation): 61.9 nM

Compound: Cn1cc(-c2ccc(S(=O)(=O)[C@@H]3C[C@@H](C(=O)NC4(C#N)CC4)N(C(=O)C4(C(F)(F)F)CC4)C3)c(C(F)(F)F)c2)cn1 [Petesicatib]
CD74 accumulation (CTSS in Raji cells): lower than what we obtained with lower doses of our APeCs | CD74 accumulation (CTSS in WSU-DLCL2 cells): lower than what we obtained with lower doses of our APeCs | CTSS inhibition (qABP band) [1]: comparable

Compound: Epr-AF488: Epratuzumab antibody conjugated with AlexaFluor-488 azide-dye instead of C10
internalization by lymphoma cells (inaccessible to quencher antibody) (WSU-DLCL2 cells; 3 hours at 37° C.): internalized | binding to lymphoma cells (WSU-DLCL2 cells; 3 hours, flow cytometry): still able to bind lymphoma cells
